Laboratory results from article PMC7486443, “Generation of Phenothiazine with Potent Anti-TLK1 Activity for Prostate Cancer Therapy” (iScience, 2020).

What was measured:
Experiment in all cases: biochemical
Design in all cases: DiscoverX KINOMEscan scanMAX competition binding panel, single concentration, percent of control; remaining binding: dose or concentration left out as unconfirmed
Settings in all cases: KINOMEscan binding, percent of control; read-out: Table S4_SCANMAX REPORT - related to Fig. 1 / Percent Control
[1] = target: T1, ABL1-nonphosphorylated (Homo sapiens, UniProt P00519)
T1 construct: nonphosphorylated

[2] = target: BRAF (Homo sapiens, UniProt P15056)
[3] = target: BTK (Homo sapiens, UniProt Q06187)
[4] = target: T2, CDC2L2 (Homo sapiens, UniProt Q9UQ88)
T2 construct: gene CDK11A

[5] = target: CDK2 (Homo sapiens, UniProt P24941)
[6] = target: CSK (Homo sapiens, UniProt P41240)
[7] = target: EPHB1 (Homo sapiens, UniProt P54762)
[8] = target: T3, ERK8 (Homo sapiens, UniProt Q8TD08)
T3 construct: gene MAPK15

[9] = target: FGFR4 (Homo sapiens, UniProt P22455)
[10] = target: T4, JAK2(JH1domain-catalytic) (Homo sapiens, UniProt O60674)
T4 construct: JH1domain-catalytic

[11] = target: MAP3K3 (Homo sapiens, UniProt Q99759)
[12] = target: PAK3 (Homo sapiens, UniProt O75914)
[13] = target: T5, PFCDPK1(P.falciparum) (Plasmodium falciparum, UniProt P62344)
T5 construct: gene CDPK1

[14] = target: PIK3C2G (Homo sapiens, UniProt O75747)
[15] = target: PIK3CA(E545A) (Homo sapiens, UniProt P42336, E545A)
[16] = target: PLK1 (Homo sapiens, UniProt P53350)
[17] = target: STK39 (Homo sapiens, UniProt Q9UEW8)
[18] = target: T6, TRKA (Homo sapiens, UniProt P04629)
T6 construct: gene NTRK1
T6 sequence (P04629 whole entry): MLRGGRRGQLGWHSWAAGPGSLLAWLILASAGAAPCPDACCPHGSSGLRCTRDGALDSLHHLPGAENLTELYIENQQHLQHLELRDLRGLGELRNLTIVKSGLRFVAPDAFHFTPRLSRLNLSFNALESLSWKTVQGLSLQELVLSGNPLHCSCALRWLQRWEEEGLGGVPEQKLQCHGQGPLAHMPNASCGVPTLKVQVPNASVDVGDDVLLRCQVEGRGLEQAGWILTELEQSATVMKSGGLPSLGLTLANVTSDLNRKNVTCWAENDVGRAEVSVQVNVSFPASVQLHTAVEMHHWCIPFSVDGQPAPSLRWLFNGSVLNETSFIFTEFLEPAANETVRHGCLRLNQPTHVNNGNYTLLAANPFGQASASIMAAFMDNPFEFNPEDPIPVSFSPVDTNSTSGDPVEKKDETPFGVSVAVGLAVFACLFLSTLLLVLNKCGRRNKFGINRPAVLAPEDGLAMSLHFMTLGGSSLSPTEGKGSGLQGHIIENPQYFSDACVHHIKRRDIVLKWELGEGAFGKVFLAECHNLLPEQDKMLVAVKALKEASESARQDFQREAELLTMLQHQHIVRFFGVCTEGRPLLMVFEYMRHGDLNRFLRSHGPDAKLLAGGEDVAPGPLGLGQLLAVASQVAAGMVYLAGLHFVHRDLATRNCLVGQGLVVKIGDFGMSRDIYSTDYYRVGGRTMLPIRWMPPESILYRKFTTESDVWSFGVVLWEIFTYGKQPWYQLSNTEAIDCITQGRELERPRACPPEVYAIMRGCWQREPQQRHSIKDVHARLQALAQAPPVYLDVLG

T4 sequence (O60674 whole entry): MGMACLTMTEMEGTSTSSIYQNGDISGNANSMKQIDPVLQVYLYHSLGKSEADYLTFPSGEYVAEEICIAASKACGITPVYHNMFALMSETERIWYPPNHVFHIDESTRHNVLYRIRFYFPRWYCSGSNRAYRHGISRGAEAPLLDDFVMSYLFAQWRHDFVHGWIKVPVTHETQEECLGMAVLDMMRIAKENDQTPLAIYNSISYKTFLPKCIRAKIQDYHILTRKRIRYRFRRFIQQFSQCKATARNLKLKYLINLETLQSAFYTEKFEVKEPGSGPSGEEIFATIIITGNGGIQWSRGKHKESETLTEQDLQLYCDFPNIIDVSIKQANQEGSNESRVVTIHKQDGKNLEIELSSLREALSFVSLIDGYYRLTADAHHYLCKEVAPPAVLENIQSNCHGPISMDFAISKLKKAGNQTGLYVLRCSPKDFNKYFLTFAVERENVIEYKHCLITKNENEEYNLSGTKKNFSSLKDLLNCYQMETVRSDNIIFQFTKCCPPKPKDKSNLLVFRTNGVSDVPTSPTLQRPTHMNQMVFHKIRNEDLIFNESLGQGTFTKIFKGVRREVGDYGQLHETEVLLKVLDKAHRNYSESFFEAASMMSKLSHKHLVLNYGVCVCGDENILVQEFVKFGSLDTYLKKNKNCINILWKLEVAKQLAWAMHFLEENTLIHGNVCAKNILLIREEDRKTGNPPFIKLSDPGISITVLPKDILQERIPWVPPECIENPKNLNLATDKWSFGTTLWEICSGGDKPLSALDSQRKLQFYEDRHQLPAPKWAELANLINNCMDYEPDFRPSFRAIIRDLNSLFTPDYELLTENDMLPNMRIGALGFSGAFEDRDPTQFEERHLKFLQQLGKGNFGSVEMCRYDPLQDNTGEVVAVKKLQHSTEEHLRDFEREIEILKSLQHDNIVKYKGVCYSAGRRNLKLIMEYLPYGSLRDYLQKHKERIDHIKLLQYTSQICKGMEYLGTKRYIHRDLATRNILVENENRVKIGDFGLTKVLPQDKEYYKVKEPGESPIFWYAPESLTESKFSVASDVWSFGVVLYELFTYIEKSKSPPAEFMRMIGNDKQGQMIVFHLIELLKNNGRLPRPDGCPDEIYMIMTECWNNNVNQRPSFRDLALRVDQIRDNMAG
T5 sequence (P62344 whole entry): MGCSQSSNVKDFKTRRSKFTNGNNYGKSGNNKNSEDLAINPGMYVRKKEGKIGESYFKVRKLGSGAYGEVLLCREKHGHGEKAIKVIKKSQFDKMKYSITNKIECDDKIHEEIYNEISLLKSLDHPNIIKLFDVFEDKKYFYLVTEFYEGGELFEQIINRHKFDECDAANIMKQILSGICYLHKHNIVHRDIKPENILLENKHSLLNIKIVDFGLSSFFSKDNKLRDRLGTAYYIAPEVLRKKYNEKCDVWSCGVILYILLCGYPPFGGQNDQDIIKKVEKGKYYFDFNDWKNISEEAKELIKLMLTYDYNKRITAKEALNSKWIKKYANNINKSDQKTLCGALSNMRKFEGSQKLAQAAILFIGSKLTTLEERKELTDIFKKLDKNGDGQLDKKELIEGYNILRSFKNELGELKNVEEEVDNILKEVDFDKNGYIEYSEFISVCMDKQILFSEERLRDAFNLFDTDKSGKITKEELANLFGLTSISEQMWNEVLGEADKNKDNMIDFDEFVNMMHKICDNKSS
T1 sequence (P00519 whole entry): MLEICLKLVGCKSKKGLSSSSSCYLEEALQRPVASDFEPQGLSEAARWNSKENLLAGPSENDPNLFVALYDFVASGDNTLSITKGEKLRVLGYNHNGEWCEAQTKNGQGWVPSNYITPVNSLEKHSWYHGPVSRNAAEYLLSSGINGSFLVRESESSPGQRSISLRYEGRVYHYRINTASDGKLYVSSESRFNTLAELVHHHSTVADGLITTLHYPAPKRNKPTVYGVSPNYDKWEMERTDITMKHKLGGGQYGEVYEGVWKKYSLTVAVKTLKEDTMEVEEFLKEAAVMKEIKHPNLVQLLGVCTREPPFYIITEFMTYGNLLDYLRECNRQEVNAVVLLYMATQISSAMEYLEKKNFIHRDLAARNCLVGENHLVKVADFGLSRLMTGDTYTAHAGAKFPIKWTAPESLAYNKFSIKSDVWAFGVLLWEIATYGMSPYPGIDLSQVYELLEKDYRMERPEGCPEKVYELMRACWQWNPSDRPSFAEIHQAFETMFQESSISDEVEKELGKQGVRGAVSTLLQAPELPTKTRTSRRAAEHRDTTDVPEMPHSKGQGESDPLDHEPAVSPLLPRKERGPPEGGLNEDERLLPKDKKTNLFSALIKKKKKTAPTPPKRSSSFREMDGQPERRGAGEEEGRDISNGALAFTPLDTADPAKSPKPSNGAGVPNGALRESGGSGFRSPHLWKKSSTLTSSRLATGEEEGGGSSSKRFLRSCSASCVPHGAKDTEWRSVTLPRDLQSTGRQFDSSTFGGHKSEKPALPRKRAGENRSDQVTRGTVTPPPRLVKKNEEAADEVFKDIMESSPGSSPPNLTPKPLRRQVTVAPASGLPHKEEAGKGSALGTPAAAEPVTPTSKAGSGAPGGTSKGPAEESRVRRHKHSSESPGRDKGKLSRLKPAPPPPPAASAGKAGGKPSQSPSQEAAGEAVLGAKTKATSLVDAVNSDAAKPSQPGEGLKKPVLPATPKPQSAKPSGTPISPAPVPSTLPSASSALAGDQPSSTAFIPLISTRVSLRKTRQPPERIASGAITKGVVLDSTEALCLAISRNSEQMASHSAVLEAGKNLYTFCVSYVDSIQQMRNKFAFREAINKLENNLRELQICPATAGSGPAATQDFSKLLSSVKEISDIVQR
T2 sequence (Q9UQ88 whole entry): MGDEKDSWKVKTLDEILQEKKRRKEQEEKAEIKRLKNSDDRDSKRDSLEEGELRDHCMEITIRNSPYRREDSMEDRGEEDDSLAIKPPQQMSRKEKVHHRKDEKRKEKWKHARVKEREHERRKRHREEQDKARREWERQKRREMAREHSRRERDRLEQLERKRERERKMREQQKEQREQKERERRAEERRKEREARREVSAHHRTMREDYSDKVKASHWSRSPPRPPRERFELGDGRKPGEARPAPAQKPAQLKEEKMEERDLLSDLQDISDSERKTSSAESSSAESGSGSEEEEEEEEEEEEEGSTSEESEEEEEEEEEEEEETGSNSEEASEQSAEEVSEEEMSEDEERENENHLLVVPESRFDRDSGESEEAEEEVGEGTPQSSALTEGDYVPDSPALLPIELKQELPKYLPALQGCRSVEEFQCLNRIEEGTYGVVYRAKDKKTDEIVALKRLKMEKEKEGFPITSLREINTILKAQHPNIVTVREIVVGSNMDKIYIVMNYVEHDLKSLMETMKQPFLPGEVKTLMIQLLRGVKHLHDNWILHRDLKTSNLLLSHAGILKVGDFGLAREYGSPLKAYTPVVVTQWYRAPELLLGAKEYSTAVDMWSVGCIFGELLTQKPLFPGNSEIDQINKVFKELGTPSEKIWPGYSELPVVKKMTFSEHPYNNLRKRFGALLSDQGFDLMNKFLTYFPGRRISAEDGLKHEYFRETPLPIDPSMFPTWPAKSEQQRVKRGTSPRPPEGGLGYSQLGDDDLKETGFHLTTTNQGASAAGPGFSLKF
Sequence of BTK (Q06187 whole entry): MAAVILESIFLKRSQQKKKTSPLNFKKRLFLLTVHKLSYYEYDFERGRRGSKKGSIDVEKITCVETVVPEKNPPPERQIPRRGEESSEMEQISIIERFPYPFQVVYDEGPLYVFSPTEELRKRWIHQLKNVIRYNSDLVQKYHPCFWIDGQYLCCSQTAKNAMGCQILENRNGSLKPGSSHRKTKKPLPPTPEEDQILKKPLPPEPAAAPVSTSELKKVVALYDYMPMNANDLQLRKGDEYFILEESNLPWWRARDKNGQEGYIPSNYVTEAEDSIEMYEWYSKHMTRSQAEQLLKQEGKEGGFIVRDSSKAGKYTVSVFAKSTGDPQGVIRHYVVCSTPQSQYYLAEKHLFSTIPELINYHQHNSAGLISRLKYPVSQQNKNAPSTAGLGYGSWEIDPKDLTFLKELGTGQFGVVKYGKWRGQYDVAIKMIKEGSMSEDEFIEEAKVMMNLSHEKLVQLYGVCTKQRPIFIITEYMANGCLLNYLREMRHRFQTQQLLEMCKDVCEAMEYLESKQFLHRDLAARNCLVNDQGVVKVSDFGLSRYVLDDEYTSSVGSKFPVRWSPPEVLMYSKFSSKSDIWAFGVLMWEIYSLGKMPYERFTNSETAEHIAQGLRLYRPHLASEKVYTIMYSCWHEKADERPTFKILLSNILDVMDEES

SMILES: c1ccc2c(c1)Sc1ccccc1N2CCN1CCOCC1 [J54]
- remaining binding [1]: 95%
- remaining binding [2]: 100%
- remaining binding [3]: 97%
- remaining binding [4]: 100%
- remaining binding [5]: 92%
- remaining binding [6]: 100%
- remaining binding [7]: 100%
- remaining binding [8]: 89%
- remaining binding [9]: 100%
- remaining binding [10]: 95%
- remaining binding [11]: 100%
- remaining binding [12]: 100%
- remaining binding [13]: 100%
- remaining binding [14]: 74%
- remaining binding [15]: 97%
- remaining binding [16]: 100%
- remaining binding [17]: 100%
- remaining binding [18]: 82%
